Legend:
HL-60 cells = assay: Copper determination in chelator treated cells (atomic absorption); format: cell-based, human
Protocol: Copper Determination: Cells were harvested by centrifugation at 1000×g for 5 minutes. The cell pellet was washed three times by re-suspending the cells in PBS (Ca^++ and Mg^++ free) and centrifugation at 1000×g. An aliquot containing 2×10^6 cells was then transferred into a metal-free Eppendorf tube and the cells were recovered by centrifugation at 1000×g. The cell pellet was re-suspended in 0.03 M ultra-pure nitric acid to give a concentration of 1×10^7 cells/ml. The cells were homogenized with a high shear mixer (polytron, Kinematica, Switzerland) for 1 minutes to disrupt the cell and release intracellular copper content. Cell samples were vortexed before transferring to a vial autosampler and analyzed in duplicate by a Perkin Elmer graphite furnace atomic absorption spectrophotometer at a wavelength of 324.7 nm. The samples were analyzed against copper standard solution prepared from a commercial stock solution that was diluted with 0.03 M ultra pure nitric acid.
FIG. 44 provides the chemical structure of the various chelators employed in these experiments.

CD34 cells = assay: Transition metal chelators in CD34+ cell liquid cultures (cell number, CD34 cells, clonability); format: cell-based, human; details: for Cells/ml (×10^4): FL, SCF, IL-6 50 ng/ml; for CFU expansion (fold): CFU day 7 / CFU day 0
Protocol: The interphase layer of mononuclear cells were collected, washed three times with Ca/Mg free phosphate buffered saline containing 1% bovine serum albumin (BSA). The cells were incubated for 30 min. at 4° C. with murine monoclonal anti CD34 antibody (0.5 μg/10^6 mononuclear cells) and thereafter isolated using the miniMACS apparatus (Miltenyi-Biotec, Bergisch, Gladbach, Germany) according to the manufacturer's protocol.
Culture procedures: For the expansion of progenitor cells, CD34^+ enriched fractions or unseparated mononuclear cells were seeded at about 1-3×10^4 cells/ml in either alpha minimal essential medium containing 10% preselected fetal calf serum (FCS) (both from GIBCO, Grand Island, N.Y.), or serum-free medium (Progenitor-34 medium, Life Technologies, Grand Island, N.Y.). The media were supplemented with a mixture of growth factors and transition metal chelators. The cultures were incubated at 37° C. in an atmosphere of 5% CO2 in air with extra humidity. Half of the medium was changed weekly with fresh medium containing all the supplements.
Cloning potential evaluations: The cloning potential of cells developed in the liquid culture was assayed, at different intervals, in semi-solid medium. The cells were washed and seeded in 35 mm dishes in methylcellulose containing alpha medium supplemented with recombinant growth factors (SCF, G-CSF, GM-CSF and EPO). Following 2 weeks incubation, the cultures were scored with an inverted microscope. Colonies were classified as blast, mixed, erythroid, myeloid, and megakaryocytic, according to their cellular composition.
Morphological assessment: In order to characterize the resulting culture populations, aliquots of cells were deposited on a glass slide (cytocentrifuge, Shandon, Runcorn, UK), fixed and stained in May-Grunwald Giemsa. Other aliquots were stained by benzidine for intracellular hemoglobin.
Immunofluorescence staining: At different intervals, cells from the liquid cultures were assayed for CD34 antigen. Aliquots were harvested, washed and incubated on ice with FITC-labeled anti CD45 monoclonal antibody and either PE-labeled anti CD34 (HPCA-2) monoclonal antibody or PE-labeled control mouse Ig. After incubation, red cells were lysed with lysing solution, while the remaining cells were washed and analyzed by flow cytometer.
Flow cytometry: Cells were analyzed and sorted using FACStar^plus flow cytometer (Becton-Dickinson, Immunofluorometry systems, Mountain View, Calif.). Cells were passed at a rate of 1,000 cells/second through a […] nozzle, using saline as the sheath fluid. […] The PMTs was set at the appropriate voltage. Logarithmic amplification was applied for measurements of fluorescence and linear amplification—for forward light scatter. At least 10^4 cells were analyzed.
Cord blood-derived CD34 cells were plated in liquid culture in the presence of: FL—50 ng/ml, SCF—50 ng/ml, IL-6—50 ng/ml, with or without IL-3—20 ng/ml, with or without TEPA—10 μM. On day 7, the percentage of CD34 cells and the total cell number were determined. Aliquots equivalent to 1×10^3 initiating cells were assayed on days 0 and 7 for colony forming cells (CFU) by cloning in semi-solid medium. CFU expansion represents the ratio of CFU present on day 7 to CFU present on day 0.
CD34^+ cells derived from human neonatal cord blood were purified by immunomagnetic method and then cultured in liquid medium supplemented with cytokines either with or without transition metal chelators. At weekly intervals, the cultures were demi-depopulated by removing half of the culture content (supernatant and cells) and replacing it with fresh medium, cytokines and the chelators. At the indicated weeks the cellular content of the cultures were quantified for total cells (by a manual microscopic/hemocytometric method), for CD34^+ cells (by immuno-flow cytometry) and for clonogenic cells (by cloning the cells in cytokine-supplemented semi-solid medium).

[1] = TEPA 10 μM, without IL-3, day 7

NCCNCCNCCNCCN [TEPA, tetraethylenepentamine]
Average Intracellular ppb Cu (HL-60 cells; 20 μM chelator): 31.5 ppb | Average Intracellular ppb Cu (HL-60 cells; 100 μM chelator): 24.1 ppb | Average Intracellular ppb Cu (HL-60 cells; 500 μM chelator): 17.1 ppb | activity at 20 µM (HL-60 cells; Homo sapiens, HL-60, 20 μM chelator, read-out: Average Intracellular Cu (% of control)): 64% | activity at 100 µM (HL-60 cells; Homo sapiens, HL-60, 100 μM chelator, read-out: Average Intracellular Cu (% of control)): 49% | activity at 500 µM (HL-60 cells; Homo sapiens, HL-60, 500 μM chelator, read-out: Average Intracellular Cu (% of control)): 35% | effect on differentiation of CD34+ cells (CD34 cells): inhibit differentiation | Cells/ml (×10^4) (CD34 cells; TEPA 10 μM, with IL-3 20 ng/ml, day 7): 11 ×10^4 | Cells/ml (×10^4) (CD34 cells; [1]): 2 ×10^4 | CD34 cells (%) (CD34 cells; TEPA 10 μM, with IL-3, day 7): 20% | Colonies (Per 1 × 10^3 initiating cells) (CD34 cells; TEPA 10 μM, with IL-3, day 7): 850 | CFU expansion (fold) (CD34 cells; TEPA 10 μM, with IL-3): 17 fold | CD34 cells (%) (CD34 cells; [1]): 11.5% | Colonies (Per 1 × 10^3 initiating cells) (CD34 cells; [1]): 140 | CFU expansion (fold) (CD34 cells; TEPA 10 μM, without IL-3): 2.8 fold | CFUc expansion (CD34 cells; after 6 weeks): 120 fold | CFUc content of cultures (CD34 cells; after 6 weeks, started with 2.5×10^3 CFUc): 300×10^3 CFUc | time long-term CD34 cultures could be maintained (CD34 cells; early-acting cytokines, no stromal cells, TEPA 10 μM): > 6 weeks | cell proliferation and CFUc expansion in long-term CD34 cultures (CD34 cells; long term cultures with early cytokines): more effective than the short-chain polyamines | concentration with optimal activity (CD34 cells; polyamine chelating agents, long-term CD34 cultures (FIGS. 39a-b)): 40 µM | concentration with optimal activity (CD34 cells; transition metal chelating agents, long-term CD34 cultures (FIGS. 40a-b)): 10 µM

Reference: patent publication US20050054103A1, “Expansion of renewable stem cell populations using modulators of PI 3-kinase” (priority 2003, published 2005)
